For one assay, the target named is MCL1/Bim (Homo sapiens (Human), UniProt Q07820). In words: MCL1/Bim Binding AlphaLISA Assay. As to conditions: recombinant human 6xHis-MCL1 (171-327), biotinylated Bim peptide (51-76). An outline of the steps:
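AlphaLISA with 0.0625 nM human 6×His-MCL1 (171-327) and 0.0625 nM biotinylated Bim (51-76) peptide in 20 mM Hepes pH 7.5, 150 mM NaCl, 0.002% Brij 35, 1 mM DTT, 0.01% BSA. Compound preincubated with MCL1 1 h, Bim added 2 h, then acceptor and donor beads 1 h each; % inhibition versus DMSO and no-protein/peptide controls.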
(In Alpha technology, singlet oxygen from a donor bead excites a nearby acceptor bead.)

Another assay deals with SKBR3 cells. In words: SKBR3 Cell Viability Assay. Format: cell-based. To be noted: Homo sapiens, SK-BR-3, 72 hours, CellTiter Glo, read-out: MCL1 CV SKBR3 EC50. The gist of the method: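 SKBR3 cells (6,000/well, McCoy's 5A + 10% FBS) were added onto pre-spotted serial compound dilutions and incubated 72 h at 37° C, 5% CO2. Viability was read by CellTiter-Glo luminescence, with % inhibition normalised to DMSO (negative) and 10 μM puromycin (positive).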
Background: Cellular ATP, detected with luciferase, serves as a proxy for viable cell number.

Sequence of MCL1/Bim (Q07820 171-327): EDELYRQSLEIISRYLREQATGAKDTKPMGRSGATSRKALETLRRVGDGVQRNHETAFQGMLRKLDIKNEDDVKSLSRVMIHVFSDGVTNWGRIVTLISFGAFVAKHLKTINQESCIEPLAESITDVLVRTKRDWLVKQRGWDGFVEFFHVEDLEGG

A word on the IC50: it is the midpoint of a concentration-inhibition curve. A word on the EC50: it is the concentration giving half of the maximal effect. Turning to `COc1nn(C)cc1C(=O)N[S@@]1(=O)=NC(=O)c2ccc3c(c2)N(C[C@@H]2CC[C@H]2[C@@H](OC)C[C@H]2CCO[C@@H]2CC1)C[C@@]1(CCCc2cc(Cl)ccc21)CO3` [Example 160], the IC50 on MCL1/Bim turned out to be 0.000214 µM. For the same compound, the EC50 in the assay on SKBR3 cells came to 0.331 µM.

The record behind these values is US11667652B2, “MCL1 inhibitors” (Gilead Sciences, Inc., priority 2019, dated 2023).
